Measured values from patent publication US8507489B2, “Bicyclic triazoles as protein kinase modulators” (SGX Pharmaceuticals, Inc., priority 2006, dated 2013).

Tests used:
Assay type in all cases: biochemical
MET M1250T = MET M1250T (Homo sapiens, UniProt P08581, M1250T); test: SelectScreen Kinase Profiling MET M1250T
Description: (§1) SelectScreen™ is a trademark screening assay protocol for kinases developed by Invitrogen Corporation, Madison, Wis. Details on assay conditions can be found on the company's website.

HCK = HCK (Homo sapiens, UniProt P08631); test: SelectScreen Kinase Profiling HCK
Sequence of HCK (P08631 whole entry): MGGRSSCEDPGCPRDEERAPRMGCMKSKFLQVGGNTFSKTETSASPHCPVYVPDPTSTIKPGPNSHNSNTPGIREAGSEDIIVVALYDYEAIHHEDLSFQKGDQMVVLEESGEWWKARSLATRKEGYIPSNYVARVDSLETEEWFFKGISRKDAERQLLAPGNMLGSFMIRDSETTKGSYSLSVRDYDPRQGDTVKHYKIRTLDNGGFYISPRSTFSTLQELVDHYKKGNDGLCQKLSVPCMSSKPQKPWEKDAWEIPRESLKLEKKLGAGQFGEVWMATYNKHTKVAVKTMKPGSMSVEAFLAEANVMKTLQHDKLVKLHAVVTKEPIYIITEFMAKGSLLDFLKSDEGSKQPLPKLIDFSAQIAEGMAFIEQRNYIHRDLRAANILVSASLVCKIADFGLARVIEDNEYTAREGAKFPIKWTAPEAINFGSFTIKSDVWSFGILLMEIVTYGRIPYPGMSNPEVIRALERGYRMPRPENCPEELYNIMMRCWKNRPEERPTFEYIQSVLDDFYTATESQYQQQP
Description: as §1

FES (FPS) = FES (FPS) (Homo sapiens, UniProt P07332); test: SelectScreen Kinase Profiling FES
Sequence of FES (FPS) (P07332 whole entry): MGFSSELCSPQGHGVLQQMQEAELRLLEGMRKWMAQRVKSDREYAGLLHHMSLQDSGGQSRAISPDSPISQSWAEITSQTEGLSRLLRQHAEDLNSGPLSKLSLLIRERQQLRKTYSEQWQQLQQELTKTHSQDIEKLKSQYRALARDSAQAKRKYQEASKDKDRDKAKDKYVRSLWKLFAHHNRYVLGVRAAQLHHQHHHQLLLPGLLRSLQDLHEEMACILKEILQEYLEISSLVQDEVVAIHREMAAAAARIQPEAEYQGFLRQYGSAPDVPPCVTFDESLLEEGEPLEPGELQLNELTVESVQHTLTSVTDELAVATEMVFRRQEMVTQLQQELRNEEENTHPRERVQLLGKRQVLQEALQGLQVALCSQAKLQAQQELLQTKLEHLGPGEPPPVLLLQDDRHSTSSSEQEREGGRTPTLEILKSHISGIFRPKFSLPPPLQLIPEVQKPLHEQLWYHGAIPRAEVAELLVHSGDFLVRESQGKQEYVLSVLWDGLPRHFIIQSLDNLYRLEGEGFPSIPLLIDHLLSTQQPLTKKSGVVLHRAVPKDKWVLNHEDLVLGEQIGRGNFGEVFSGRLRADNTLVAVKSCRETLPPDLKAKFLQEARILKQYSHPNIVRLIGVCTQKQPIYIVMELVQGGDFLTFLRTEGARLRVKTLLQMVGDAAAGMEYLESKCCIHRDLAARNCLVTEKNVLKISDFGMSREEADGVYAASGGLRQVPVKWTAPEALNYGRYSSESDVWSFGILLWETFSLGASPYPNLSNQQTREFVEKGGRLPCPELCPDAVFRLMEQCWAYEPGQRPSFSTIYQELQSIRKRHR
Description: as §1

EPHA2 = EPHA2 (Homo sapiens, UniProt P29317); test: SelectScreen Kinase Profiling EPHA2
Description: as §1

MST1R (RON) = MST1R (RON) (Homo sapiens, UniProt Q04912); test: SelectScreen Kinase Profiling MST1R
Sequence of MST1R (RON) (Q04912 25-1400): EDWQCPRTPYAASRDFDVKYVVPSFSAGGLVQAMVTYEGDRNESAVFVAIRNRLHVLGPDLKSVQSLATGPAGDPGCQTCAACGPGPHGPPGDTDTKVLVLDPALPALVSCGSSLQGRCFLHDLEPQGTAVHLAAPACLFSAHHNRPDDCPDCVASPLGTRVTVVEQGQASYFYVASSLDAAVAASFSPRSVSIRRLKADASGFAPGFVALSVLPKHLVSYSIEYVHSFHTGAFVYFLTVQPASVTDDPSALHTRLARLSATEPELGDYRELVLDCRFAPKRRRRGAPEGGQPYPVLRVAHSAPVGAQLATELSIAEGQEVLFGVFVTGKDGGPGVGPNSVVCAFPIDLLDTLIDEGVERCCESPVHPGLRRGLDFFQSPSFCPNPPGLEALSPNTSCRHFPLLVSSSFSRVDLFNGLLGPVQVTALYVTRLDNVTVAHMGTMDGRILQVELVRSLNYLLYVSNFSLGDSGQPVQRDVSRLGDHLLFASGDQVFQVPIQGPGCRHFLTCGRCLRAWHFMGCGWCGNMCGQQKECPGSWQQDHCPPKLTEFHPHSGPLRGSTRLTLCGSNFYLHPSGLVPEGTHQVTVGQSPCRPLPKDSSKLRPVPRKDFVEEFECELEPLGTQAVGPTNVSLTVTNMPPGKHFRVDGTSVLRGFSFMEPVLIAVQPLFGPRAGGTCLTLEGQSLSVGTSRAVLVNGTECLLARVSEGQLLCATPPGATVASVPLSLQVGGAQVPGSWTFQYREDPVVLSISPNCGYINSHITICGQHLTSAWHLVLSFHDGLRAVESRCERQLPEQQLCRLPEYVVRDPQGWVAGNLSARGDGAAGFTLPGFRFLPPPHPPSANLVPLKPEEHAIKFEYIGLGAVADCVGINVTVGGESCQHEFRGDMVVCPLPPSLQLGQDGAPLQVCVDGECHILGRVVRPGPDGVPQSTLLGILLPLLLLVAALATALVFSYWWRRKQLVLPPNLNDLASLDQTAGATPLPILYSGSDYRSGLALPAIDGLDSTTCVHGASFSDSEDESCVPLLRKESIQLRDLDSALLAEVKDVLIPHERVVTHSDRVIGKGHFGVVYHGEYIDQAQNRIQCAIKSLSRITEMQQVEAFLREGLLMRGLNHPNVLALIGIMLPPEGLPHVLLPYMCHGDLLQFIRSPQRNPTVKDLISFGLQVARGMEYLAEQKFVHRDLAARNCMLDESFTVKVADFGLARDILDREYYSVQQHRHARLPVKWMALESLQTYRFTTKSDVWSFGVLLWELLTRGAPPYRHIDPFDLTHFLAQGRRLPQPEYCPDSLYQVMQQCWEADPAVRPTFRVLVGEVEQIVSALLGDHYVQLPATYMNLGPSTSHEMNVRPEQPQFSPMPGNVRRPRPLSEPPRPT
Description: as §1

ABL1 Y253F = ABL1 Y253F (Homo sapiens, UniProt P00519, Y253F); test: SelectScreen Kinase Profiling ABL1 Y253F
Description: as §1

PDK1 = PDK1 (Homo sapiens, UniProt O15530); test: SelectScreen Kinase Profiling PDK1
Sequence of PDK1 (O15530 whole entry): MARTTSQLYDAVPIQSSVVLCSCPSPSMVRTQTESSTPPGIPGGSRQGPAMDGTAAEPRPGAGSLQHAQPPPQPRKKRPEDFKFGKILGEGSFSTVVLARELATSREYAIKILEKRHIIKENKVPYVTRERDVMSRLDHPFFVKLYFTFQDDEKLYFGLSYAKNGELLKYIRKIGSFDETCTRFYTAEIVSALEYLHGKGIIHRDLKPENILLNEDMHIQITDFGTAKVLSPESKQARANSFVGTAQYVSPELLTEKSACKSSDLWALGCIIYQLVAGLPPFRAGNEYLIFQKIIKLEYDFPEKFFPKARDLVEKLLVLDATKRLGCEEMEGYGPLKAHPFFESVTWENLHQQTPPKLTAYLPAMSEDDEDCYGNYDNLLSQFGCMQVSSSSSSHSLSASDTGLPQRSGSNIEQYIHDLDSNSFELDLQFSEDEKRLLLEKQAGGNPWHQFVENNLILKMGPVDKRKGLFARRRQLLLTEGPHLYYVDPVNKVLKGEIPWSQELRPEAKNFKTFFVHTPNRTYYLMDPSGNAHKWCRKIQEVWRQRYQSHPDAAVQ
Description: as §1

KDR (VEGFR2) = KDR (VEGFR2) (Homo sapiens, UniProt P35968); test: SelectScreen Kinase Profiling KDR
Description: as §1

MET (cMet) = MET (cMet) (Homo sapiens, UniProt P08581); test: SelectScreen Kinase Profiling MET
Description: as §1

MAP4K4 (HGK) = MAP4K4 (HGK) (Homo sapiens, UniProt O95819); test: SelectScreen Kinase Profiling MAP4K4
Sequence of MAP4K4 (HGK) (O95819 whole entry): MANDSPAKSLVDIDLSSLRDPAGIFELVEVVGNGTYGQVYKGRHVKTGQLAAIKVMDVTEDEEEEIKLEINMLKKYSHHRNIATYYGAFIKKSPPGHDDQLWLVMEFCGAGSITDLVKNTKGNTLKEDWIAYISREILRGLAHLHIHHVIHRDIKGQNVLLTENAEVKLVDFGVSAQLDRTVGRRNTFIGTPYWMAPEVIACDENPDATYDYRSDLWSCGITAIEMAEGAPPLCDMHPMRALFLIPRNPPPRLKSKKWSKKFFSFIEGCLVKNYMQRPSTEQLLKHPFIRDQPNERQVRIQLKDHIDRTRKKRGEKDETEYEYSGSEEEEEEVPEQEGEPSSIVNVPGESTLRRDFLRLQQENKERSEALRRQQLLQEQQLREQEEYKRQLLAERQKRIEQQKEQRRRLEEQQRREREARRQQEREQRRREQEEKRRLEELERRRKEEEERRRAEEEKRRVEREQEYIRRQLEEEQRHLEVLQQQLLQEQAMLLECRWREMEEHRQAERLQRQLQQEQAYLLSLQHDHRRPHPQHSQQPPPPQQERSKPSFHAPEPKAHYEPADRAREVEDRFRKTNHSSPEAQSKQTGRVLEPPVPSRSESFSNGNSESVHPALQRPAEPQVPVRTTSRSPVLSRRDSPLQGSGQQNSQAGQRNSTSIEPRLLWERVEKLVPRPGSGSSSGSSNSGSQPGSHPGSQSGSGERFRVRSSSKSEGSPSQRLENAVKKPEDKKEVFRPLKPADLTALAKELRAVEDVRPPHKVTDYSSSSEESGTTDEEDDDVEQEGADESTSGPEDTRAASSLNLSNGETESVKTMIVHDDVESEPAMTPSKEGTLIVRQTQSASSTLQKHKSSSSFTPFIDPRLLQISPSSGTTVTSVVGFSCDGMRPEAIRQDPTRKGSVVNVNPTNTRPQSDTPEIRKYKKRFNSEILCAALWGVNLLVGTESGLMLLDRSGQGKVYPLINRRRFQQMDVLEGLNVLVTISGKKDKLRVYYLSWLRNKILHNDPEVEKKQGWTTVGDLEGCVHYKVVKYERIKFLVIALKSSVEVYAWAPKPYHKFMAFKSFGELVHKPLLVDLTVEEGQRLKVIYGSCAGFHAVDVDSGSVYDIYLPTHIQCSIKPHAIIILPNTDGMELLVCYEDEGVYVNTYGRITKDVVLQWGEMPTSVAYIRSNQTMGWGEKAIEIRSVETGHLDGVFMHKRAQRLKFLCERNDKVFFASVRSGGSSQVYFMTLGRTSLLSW
Description: as §1

MAP2K1 (MEK1) = MAP2K1 (MEK1) (Homo sapiens, UniProt Q02750); test: SelectScreen Kinase Profiling MAP2K1
Sequence of MAP2K1 (MEK1) (Q02750 whole entry): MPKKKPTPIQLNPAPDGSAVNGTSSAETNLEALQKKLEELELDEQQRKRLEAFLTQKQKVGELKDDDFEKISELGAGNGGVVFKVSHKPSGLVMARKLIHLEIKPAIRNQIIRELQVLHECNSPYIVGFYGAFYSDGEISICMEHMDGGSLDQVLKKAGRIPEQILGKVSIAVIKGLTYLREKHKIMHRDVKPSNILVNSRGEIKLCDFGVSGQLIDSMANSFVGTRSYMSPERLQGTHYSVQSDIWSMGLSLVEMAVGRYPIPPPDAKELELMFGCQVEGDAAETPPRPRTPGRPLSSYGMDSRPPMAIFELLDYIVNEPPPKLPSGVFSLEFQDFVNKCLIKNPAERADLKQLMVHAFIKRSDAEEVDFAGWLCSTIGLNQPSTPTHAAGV
Description: as §1

FGFR3 = FGFR3 (Homo sapiens, UniProt P22607); test: SelectScreen Kinase Profiling FGFR3
Description: as §1

ROS1 = ROS1 (Homo sapiens, UniProt P08922); test: SelectScreen Kinase Profiling ROS1
Description: as §1

PIM1 = PIM1 (Homo sapiens, UniProt P11309); test: SelectScreen Kinase Profiling PIM1
Description: as §1

FRAP1 (mTOR) = FRAP1 (mTOR) (Homo sapiens, UniProt P42345); test: SelectScreen Kinase Profiling FRAP1
Description: as §1

BRAF V599E = BRAF V599E (Homo sapiens, UniProt P15056, V600E); test: SelectScreen Kinase Profiling BRAF V599E
Description: as §1

ABL1 T315I = ABL1 T315I (Homo sapiens, UniProt P00519, T315I); test: SelectScreen Kinase Profiling ABL1 T315I
Description: as §1

RPS6KB1 (p70S6K) = RPS6KB1 (p70S6K) (Homo sapiens, UniProt P23443); test: SelectScreen Kinase Profiling RPS6KB1
Description: as §1

PDGFRA T674I = PDGFRA T674I (Homo sapiens, UniProt P16234, T674I); test: SelectScreen Kinase Profiling PDGFRA T674I
Description: as §1

c-MET = c-MET (Homo sapiens, UniProt P08581); test: MET luminescence-based enzyme assay (Kinase-Glo)
Experimental: The subscript designates positive or negative controls. The Z′ score for a robust screening assay should be ≧0.50. The typical threshold=μ+−3*σ+. Any value that falls below the threshold was designated a “hit”.
MET Luminescence-Based Enzyme Assay
MET kinase (see below), Kinase-Glo™ (Promega Cat#V6712).
Negative controls contained 10 μM staurosporine.

| inhibition at 1 µM (MET M1250T) [%] | inhibition at 1 µM (HCK) [%] | inhibition at 1 µM (FES (FPS)) [%] | inhibition at 1 µM (EPHA2) [%] | inhibition at 1 µM (MST1R (RON)) [%] | inhibition at 1 µM (ABL1 Y253F) [%] | inhibition at 1 µM (PDK1) [%] | inhibition at 1 µM (KDR (VEGFR2)) [%] | inhibition at 1 µM (MET (cMet)) [%] | inhibition at 1 µM (MAP4K4 (HGK)) [%] | inhibition at 1 µM (MAP2K1 (MEK1)) [%] | inhibition at 1 µM (FGFR3) [%] | inhibition at 1 µM (ROS1) [%] | inhibition at 1 µM (PIM1) [%] | inhibition at 1 µM (FRAP1 (mTOR)) [%] | inhibition at 1 µM (BRAF V599E) [%] | inhibition at 1 µM (ABL1 T315I) [%] | inhibition at 1 µM (RPS6KB1 (p70S6K)) [%] | inhibition at 1 µM (PDGFRA T674I) [%] | IC50 (c-MET) [nM] | Compound |
| --- | --- | --- | --- | --- | --- | --- | --- | --- | --- | --- | --- | --- | --- | --- | --- | --- | --- | --- | --- | --- |
| 89 | 9 | 1 | 2 | 53 | 30 | 6 | 16 | 98 | 27 | 3 | 26 | 41 | 0 | 0 | 7 | 47 | 5 | -1 | < 100 | Cc1ccc2nnc(Sc3ccc4ncc(-c5cnn(C)c5)cc4c3)n2n1 [Compound 41, 3-(1-Methyl-1H-pyrazol-4-yl)-6-(6-methyl-[1,2,4]triazolo[4,3-b]pyridazin-3-ylsulfanyl)-quinoline] |
|  | 8 | 5 | -23 | 9 | 20 | 7 |  |  | -1 | 16 | -4 | 7 | 4 |  | 36 | 11 | 3 | -9 |  | Cn1cc(-c2ccc3nnc(Sc4ccc5ncccc5c4)n3n2)cn1 [Compound 4, 6-[6-(1-Methyl-1H-pyrazol-4-yl)-[1,2,4]triazolo[4,3-b]pyridazin-3-ylsulfanyl]-quinoline] |
